System: serum antibodies of test subjects Serum 1B-8B
Settings: sera S1B-S8B; streptavidin immobilized peptide

Biotin-aminocaproyl-SRPRVRNIP [Peptide 2B]
binding of serum antibodies (immune response), absorbance at 450 nm: especially effective in binding with certain antibodies

From patent publication US20100074920A1 (priority 2006, published 2010)
